From US20120214847A1, “2-[1-PHENYL-5-HYDROXY-4a-SUBSTITUTED-HEXAHYDROCYCLOPENTA[F]INDAZOL-5-YL]ETHYL PHENYL DERIVATIVES AS GLUCOCORTICOID RECEPTOR LIGANDS” (Merck Sharp & Dohme Corp., priority 2009, published 2012) come the findings set out here.

The target of this experiment is T1, human GR (Homo sapiens, UniProt P04150).
T1 construct: naturally expresses the human GR; endogenous in cells
T1 sequence (P04150 1-777): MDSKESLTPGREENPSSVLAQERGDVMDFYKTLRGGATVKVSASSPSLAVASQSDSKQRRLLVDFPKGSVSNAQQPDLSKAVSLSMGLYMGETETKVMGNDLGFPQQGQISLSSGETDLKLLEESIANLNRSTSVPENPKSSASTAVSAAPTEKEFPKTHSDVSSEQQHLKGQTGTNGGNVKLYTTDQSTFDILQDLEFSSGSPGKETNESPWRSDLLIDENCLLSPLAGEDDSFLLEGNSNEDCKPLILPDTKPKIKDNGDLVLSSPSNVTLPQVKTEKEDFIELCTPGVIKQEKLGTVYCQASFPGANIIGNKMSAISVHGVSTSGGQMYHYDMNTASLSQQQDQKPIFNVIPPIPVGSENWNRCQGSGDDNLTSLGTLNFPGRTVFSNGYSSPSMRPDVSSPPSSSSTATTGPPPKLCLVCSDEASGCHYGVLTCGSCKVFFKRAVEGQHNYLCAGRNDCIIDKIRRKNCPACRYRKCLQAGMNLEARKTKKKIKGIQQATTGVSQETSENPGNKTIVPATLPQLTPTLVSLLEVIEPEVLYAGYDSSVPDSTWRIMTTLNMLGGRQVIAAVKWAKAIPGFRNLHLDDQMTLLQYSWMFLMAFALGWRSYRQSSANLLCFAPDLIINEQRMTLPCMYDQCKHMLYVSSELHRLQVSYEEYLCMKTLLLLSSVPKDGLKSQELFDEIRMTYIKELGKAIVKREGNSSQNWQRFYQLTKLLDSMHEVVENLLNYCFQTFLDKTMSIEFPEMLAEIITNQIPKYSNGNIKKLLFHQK
Description: Transrepression assay (GITAR), TNFα-β-lactamase reporter in U937 cells. The format is cell-based. The settings on record: for EC50 / Transrepression U937 Cells GITAR Emax (%): U937 cells; for EC50: IP = inflection point; for Transrepression U937 Cells GITAR Emax (%) / Emax: activity repressed by 100 nM dexamethasone alone set as 100%; for Emax: U-937, U937 cells. An outline of the steps: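 U937 cells stably carrying TNFα promoter–β-lactamase, endogenous GR, preincubated with compound 30–45 min at 37° C., then stimulated with 5 ng/ml PMA plus 100 ng/ml LPS for ~18 h. CCF2-AM read-out; repression by 100 nM dexamethasone set as 100%.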

For `CC[C@]12Cc3cnn(-c4ccccc4)c3C=C1CC[C@@]2(O)CC(O)c1ccccn1` (single isomer, unassigned) [Example 82a], it took 217 nM to reach a half-maximal effect (EC50) and the “Transrepression U937 Cells GITAR Emax (%)” value is given as 54%.

In turn, `OCc1ccccc1CC[C@]1(O)CCC2=Cc3c(cnn3-c3ccc(F)cc3)C[C@@]21C1CC1` [Example 2, (4aR,5R)-4a-Cyclopropyl-1-(4-fluorophenyl)-5-{2-[2-(hydroxymethyl)phenyl]ethyl}-1,4,4a,5,6,7-hexahydrocyclopenta[f]indazol-5-ol] registered an EC50 of 8 nM and an Emax of 79%.

Take `NC(=O)C(O)c1ccccc1CC[C@]1(O)CCC2=Cc3c(cnn3-c3ccc(F)cc3)C[C@@]21C1CC1` (single isomer, unassigned) [Example 3a]: a half-maximal response (EC50) required 85 nM and the “Transrepression U937 Cells GITAR Emax (%)” value is 72%.

Turning to `CC[C@]12Cc3cnn(-c4ccccc4)c3C=C1CC[C@@]2(O)CC(O)c1ccccn1` (single isomer, unassigned) [Example 82b], a half-maximal effect (EC50) was put at 277 nM and the “Transrepression U937 Cells GITAR Emax (%)” value is reported as 44%.

As to `CC[C@]12Cc3cnn(-c4ccccc4)c3C=C1CC[C@@]2(O)CCc1ncccc1S(=O)(=O)C(C)C` [Example 81, (4aS,5R)-4a-Ethyl-5-{2-[3-(iso-propylsulfonyl)pyridin-2-yl]ethyl}-1-phenyl-1,4,4a,5,6,7-hexahydrocyclopenta[f]indazol-5-ol], the EC50 was found to be 53 nM and the Emax came out at 68%.

With `OC(C[C@]1(O)CCC2=Cc3c(cnn3-c3ccc(F)cc3)C[C@@]21C1CC1)c1ccc(F)cn1` (single isomer, unassigned) [Example 79b], the concentration for a half-maximal effect (EC50) amounted to 282 nM and the “Transrepression U937 Cells GITAR Emax (%)” value turned out to be 54%.

Regarding `CC[C@]12Cc3cnn(-c4ccc(F)cc4)c3C=C1CC[C@@]2(O)CCc1ncccc1S(C)(=O)=O` [Example 80, (4aS,5R)-4a-Ethyl-1-(4-fluorophenyl)-5-{2-[3-(methylsulfonyl)pyridin-2-yl]ethyl}-1,4,4a,5,6,7-hexahydrocyclopenta[f]indazol-5-ol], the EC50 was 56 nM and the Emax amounted to 70%.
